According to ChEMBL document CHEMBL4842383 (J Med Chem, 2021):
Active and inactive are the calls of the source. No cut-off for these calls is given here.

Key:
BaF3 = experiment: Antiproliferative activity against mouse BaF3 cells transfected with human ETV6-CSF1R assessed as reduction in cell viability measured after 72 hrs by MTS method; conditions: BaF3, 72 h
[1] = Dose normalized Cmax in Sprague-Dawley rat at 20 to 25 mg/kg, po measured up to 24 hrs by LC-MS/MS analysis; assay type: ADME, organism-based; conditions: in vivo, dose 20-25 mg/kg
[2] = Tmax in Sprague-Dawley rat at 20 to 25 mg/kg, po measured up to 24 hrs by LC-MS/MS analysis; assay type: ADME, organism-based; conditions: in vivo, dose 20-25 mg/kg
Aurora kinase B [3] = biological target: T1, Aurora kinase B (Homo sapiens, UniProt Q96GD4); experiment: Inhibition of human recombinant full length GST-AURKB using tetra(-LRRASLG) peptide as substrate at 0.1 uM incubated for 20 mins by ATP Kinase Glo assay; assay type: biochemical; conditions: Sf9
[4] = Dose normalized AUC (0 to inf) in Sprague-Dawley rat at 5 mg/kg, iv measured up to 24 hrs by LC-MS/MS analysis; assay type: ADME, organism-based; conditions: in vivo
[5] = biological target: T2, Macrophage colony-stimulating factor 1 receptor (Homo sapiens, UniProt P07333); experiment: Inhibition of human recombinant GST-CSF1R (residues L534 to C972) expressed in Sf9 insect cells using poly(Glu,Tyr) as substrate incubated for 20 mins by ATP Kinase Glo assay
[6] = Half life in Sprague-Dawley rat at 20 to 25 mg/kg, po measured up to 24 hrs by LC-MS/MS analysis; assay type: ADME, organism-based; conditions: in vivo, dose 20-25 mg/kg
[7] = Volume of distribution at steady state in Sprague-Dawley rat at 5 mg/kg, iv measured up to 24 hrs by LC-MS/MS analysis; assay type: ADME, organism-based; conditions: in vivo, read-out: Vdss
[8] = Clearance in Sprague-Dawley rat at 5 mg/kg, iv measured up to 24 hrs by LC-MS/MS analysis; assay type: ADME, organism-based; conditions: in vivo
[9] = Half life in Sprague-Dawley rat at 5 mg/kg, iv measured up to 24 hrs by LC-MS/MS analysis; assay type: ADME, organism-based; conditions: in vivo
[10] = Dose normalized AUC (0 to inf) in Sprague-Dawley rat at 20 to 25 mg/kg, po measured up to 24 hrs by LC-MS/MS analysis; assay type: ADME, organism-based; conditions: in vivo, dose 20-25 mg/kg
NFS-60 = experiment: Antiproliferative activity against mouse NFS-60 cells transfected with human ETV6-CSF1R assessed as reduction in cell viability measured after 72 hrs by MTS method; assay type: functional, cell-based; conditions: NFS-60, 72 h
[11] = biological target: T3, Aurora kinase A (Homo sapiens) (UniProt O14965); experiment: Inhibition of recombinant GST-AURKA (residues Ser123 to Ser401) (unknown origin) expressed in Sf9 insect cells using tetra(-LRRASLG) peptide as substrate at 1 uM incubated for 90 mins by ATP Kinase Glo assay
T3 sequence (whole entry): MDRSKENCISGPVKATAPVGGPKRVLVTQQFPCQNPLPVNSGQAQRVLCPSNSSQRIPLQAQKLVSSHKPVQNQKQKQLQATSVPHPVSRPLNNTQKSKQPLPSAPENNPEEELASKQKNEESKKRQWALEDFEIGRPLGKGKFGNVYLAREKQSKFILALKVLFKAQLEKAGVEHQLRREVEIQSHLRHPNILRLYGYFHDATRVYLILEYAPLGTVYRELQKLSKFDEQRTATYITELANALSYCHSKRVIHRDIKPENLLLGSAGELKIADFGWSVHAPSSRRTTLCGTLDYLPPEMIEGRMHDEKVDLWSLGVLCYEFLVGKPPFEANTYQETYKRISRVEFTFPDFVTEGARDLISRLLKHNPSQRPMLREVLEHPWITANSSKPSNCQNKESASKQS

[12] = Oral bioavailability in Sprague-Dawley rat at 20 to 25 mg/kg measured up to 24 hrs by LC-MS/MS analysis; assay type: ADME, organism-based; conditions: in vivo, dose 20-25 mg/kg
Mus musculus [13] = experiment: Immunomodulatory activity in mouse MC38 cells inoculated C57BL/6 mouse syngeneic model assessed as increase in M1 to M2 like TAM ratio in tumor at 100 mg/kg, po twice a day for 2 weeks by five days on/two days off schedule relative to control; assay type: functional, organism-based; conditions: MC-38
Mus musculus [14] = experiment: Immunomodulatory activity in mouse MC38 cells inoculated C57BL/6 mouse syngeneic model assessed as increase in cytotoxic CD8+ T cell to M2 like TAM ratio in tumor at 100 mg/kg, po twice a day for 2 weeks by five days on/two days off schedule relative to control; assay type: functional, organism-based; conditions: MC-38
RAW264.7 = experiment: Anti-inflammatory activity mouse RAW264.7 cells assessed as inhibition of LPS-induced TNFalpha production by ELISA; assay type: functional, cell-based
[15] = biological target: T4, Macrophage colony-stimulating factor 1 receptor (Mus musculus) (UniProt P09581); experiment: Inhibition of CSF1R phosphorylation in mouse RAW264.7 cells by Western blotting analysis; assay type: cell-based
T4 sequence (whole entry): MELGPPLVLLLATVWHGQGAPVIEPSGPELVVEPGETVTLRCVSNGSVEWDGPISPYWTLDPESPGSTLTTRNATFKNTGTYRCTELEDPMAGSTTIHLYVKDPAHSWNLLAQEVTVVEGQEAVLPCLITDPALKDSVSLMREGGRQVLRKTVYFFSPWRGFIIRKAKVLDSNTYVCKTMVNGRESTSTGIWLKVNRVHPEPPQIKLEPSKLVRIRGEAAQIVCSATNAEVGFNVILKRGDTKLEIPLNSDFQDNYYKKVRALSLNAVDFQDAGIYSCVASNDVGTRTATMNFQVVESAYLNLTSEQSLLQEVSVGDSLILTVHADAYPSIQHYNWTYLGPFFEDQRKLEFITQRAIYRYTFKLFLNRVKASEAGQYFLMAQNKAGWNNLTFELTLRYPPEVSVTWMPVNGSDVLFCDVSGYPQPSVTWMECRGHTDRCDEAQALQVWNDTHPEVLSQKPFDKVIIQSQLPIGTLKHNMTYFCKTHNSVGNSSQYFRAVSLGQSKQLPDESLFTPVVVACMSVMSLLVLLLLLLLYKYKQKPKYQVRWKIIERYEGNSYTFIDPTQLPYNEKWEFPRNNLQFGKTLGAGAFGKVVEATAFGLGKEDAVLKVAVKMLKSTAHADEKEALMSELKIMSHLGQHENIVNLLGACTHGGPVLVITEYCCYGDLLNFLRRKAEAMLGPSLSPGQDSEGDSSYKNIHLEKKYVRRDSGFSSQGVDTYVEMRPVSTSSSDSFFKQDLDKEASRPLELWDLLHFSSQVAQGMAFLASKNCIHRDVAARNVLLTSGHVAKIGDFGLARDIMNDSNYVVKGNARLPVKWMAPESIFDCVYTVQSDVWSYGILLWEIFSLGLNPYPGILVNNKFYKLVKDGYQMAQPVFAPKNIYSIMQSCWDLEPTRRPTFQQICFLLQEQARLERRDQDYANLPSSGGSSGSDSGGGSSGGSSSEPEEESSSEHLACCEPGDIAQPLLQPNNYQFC

[16] = biological target: T2, Macrophage colony-stimulating factor 1 receptor; experiment: Inhibition of CSF1R phosphorylation in human THP-1 cells by Western blotting analysis; assay type: cell-based
BMDM [17] = experiment: Growth inhibition of CSF1-induced mouse BMDM cell assessed as inhibition of M2 like macrophage growth incubated for 3 days by WST-8 assay; conditions: 72 h
BMDM [18] = experiment: Growth inhibition of CSF2-induced mouse BMDM cell assessed as inhibition of M1 like macrophage growth for 3 days by WST-8 assay; conditions: 72 h
Aurora kinase B [19] = biological target: T1, Aurora kinase B; experiment: Inhibition of human recombinant full length GST-AURKB using tetra(-LRRASLG) peptide as substrate incubated for 20 mins by ATP Kinase Glo assay; parameters: species or system Sf9
Aurora kinase A = biological target: T5, Aurora kinase A (Homo sapiens, UniProt O14965); experiment: Inhibition of recombinant GST-AURKA (residues Ser123 to Ser401) (unknown origin) expressed in Sf9 insect cells using tetra(-LRRASLG) peptide as substrate incubated for 90 mins by ATP Kinase Glo assay
T5 sequence (O14965 whole entry): T3 sequence (whole entry)

T2 sequence (P07333 whole entry, the tested form may be a part): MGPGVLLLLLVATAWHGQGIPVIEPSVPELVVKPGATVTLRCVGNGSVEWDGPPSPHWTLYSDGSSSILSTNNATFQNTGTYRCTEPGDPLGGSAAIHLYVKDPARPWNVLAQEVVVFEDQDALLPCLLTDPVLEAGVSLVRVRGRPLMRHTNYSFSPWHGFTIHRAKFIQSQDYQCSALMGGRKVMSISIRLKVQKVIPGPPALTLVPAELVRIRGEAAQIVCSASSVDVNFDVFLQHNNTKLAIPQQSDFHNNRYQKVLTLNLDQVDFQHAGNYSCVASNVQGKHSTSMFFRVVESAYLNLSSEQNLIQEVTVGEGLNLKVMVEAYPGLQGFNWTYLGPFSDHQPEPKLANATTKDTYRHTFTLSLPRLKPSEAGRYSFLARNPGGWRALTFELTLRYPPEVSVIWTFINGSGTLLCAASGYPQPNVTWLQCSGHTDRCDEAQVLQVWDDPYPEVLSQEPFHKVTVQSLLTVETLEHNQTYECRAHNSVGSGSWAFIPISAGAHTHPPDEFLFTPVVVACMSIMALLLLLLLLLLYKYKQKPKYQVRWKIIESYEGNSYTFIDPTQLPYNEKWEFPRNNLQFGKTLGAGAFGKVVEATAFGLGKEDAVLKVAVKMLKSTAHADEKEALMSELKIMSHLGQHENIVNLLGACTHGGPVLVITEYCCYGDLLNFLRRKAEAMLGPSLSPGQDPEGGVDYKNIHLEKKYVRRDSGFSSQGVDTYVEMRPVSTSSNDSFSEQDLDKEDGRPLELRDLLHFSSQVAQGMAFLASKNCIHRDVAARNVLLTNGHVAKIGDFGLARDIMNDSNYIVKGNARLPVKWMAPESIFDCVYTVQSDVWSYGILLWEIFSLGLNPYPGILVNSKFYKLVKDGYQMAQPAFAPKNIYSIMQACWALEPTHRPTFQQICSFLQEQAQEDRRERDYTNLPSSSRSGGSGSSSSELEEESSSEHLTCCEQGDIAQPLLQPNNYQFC
T1 sequence (Q96GD4 whole entry): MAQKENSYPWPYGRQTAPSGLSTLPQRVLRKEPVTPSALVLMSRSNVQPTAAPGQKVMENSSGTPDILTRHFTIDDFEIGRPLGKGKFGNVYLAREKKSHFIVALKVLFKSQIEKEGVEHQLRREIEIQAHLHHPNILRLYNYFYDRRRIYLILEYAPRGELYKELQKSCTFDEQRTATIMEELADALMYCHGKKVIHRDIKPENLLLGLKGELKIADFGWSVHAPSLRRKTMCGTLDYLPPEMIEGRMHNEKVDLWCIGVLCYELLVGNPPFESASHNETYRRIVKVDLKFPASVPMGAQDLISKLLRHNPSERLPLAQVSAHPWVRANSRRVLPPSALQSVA

| EC50 (BaF3) [nM] | Cmax/dose [1] [ng/mL] | Tmax [2] [h] | inhibition (Aurora kinase B [3]) [%] | AUCt/dose [4] [ng.hr/mL per mg/kg] | IC50 [5] [nM] | half-life [6] [h] | Vd [7] [L/kg] | clearance [8] [mL/min/kg] | half-life [9] [h] | AUCt/dose [10] [ng.hr/mL per mg/kg] | inhibition [11] [%] | bioavailability [12] [%] | SMILES | EC50 (NFS-60) [nM] | also measured |
| --- | --- | --- | --- | --- | --- | --- | --- | --- | --- | --- | --- | --- | --- | --- | --- |
| 91 | 1.7 | 6 | 29 | 1252 | 12.9 | 6.7 | 9 | 16.5 | 20.6 | 15 | 6 | 1.6 | COc1ccc(CNC(=O)Nc2ccc(Oc3ncnc4cc(N(C)C)ccc34)cc2)cc1 | 81 |  |
|  |  |  | 16 |  |  |  |  |  |  |  | 7 |  | CN(C)c1ccc2c(Oc3ccc(NC(=O)NCc4ccc(C(F)(F)F)nc4)cc3)ncnc2c1 |  | Activity (Mus musculus [13]): Active; Activity (Mus musculus [14]): Active; inhibition (RAW264.7): Active; inhibition [15]: Dose-Dependent Effect; inhibition [16]: Dose-Dependent Effect |
| 200 |  |  |  |  |  |  |  |  |  |  | 63 |  | FC(F)(F)c1ccc(CNc2ccc(Cc3c[nH]c4ncc(Cl)cc34)cn2)cn1 [PEXIDARTINIB] | 294 | IC50 (BMDM [17]): 56 nM; IC50 (BMDM [18]): > 10000 nM; IC50 (Aurora kinase B [19]): 643 nM |
| 87 | 35 | 2.3 | 18 | 767 | 12.7 | 4.8 | 1.4 | 24.7 | 1.2 | 236 | 2 | 30.7 | COc1ccc(CNC(=O)Nc2ccc(Oc3ncnc4cc(N(C)C)ccc34)cc2)cn1 | 67 |  |
| 23 | 10.6 | 2.7 | 34 | 2842 | 14.1 | 4 | 0.7 | 5.6 | 1.6 | 91 | 23 | 3.2 | COc1ccc(NC(=O)Nc2ccc(Oc3ncnc4cc(N(C)C)ccc34)cc2)cc1 | 23 | IC50 (Aurora kinase A): > 10000 nM; IC50 (Aurora kinase B [19]): 22.2 nM |
| 46 | 56 | 0.5 | 27 | 1225 | 8.3 | 24.2 | 1.4 | 12.2 | 3.3 | 89 | 5 | 7.3 | CN(C)c1ccc2c(Oc3ccc(NC(=O)NCc4ccc(F)cc4)cc3)ncnc2c1 | 69 | IC50 (Aurora kinase A): > 10000 nM |
| 38 | 21 | 3.2 | 9 | 1578 | 11 | 2.4 | 1.5 | 5.6 | 10.5 | 164 | 4 | 10.4 | Cc1ccc(CNC(=O)Nc2ccc(Oc3ncnc4cc(N(C)C)ccc34)cc2)cn1 | 68 |  |
